# Where a name gives a salt, the structure may show the parent alone. Active and inactive are the calls of the source.
# Experiments:
# [1] = target: T1, Tyrosine-protein phosphatase non-receptor type 22 (Homo sapiens, UniProt Q9Y2R2); test: SAR LYP1 Fluorescent Assay using OMFP substrate for In Vitro dose response studies - Set 3. [Related pubchem assays (depositor defined):AID1779, AID1784, AID2140, AID2686]; assay type: functional
# T1 sequence (Q9Y2R2 whole entry): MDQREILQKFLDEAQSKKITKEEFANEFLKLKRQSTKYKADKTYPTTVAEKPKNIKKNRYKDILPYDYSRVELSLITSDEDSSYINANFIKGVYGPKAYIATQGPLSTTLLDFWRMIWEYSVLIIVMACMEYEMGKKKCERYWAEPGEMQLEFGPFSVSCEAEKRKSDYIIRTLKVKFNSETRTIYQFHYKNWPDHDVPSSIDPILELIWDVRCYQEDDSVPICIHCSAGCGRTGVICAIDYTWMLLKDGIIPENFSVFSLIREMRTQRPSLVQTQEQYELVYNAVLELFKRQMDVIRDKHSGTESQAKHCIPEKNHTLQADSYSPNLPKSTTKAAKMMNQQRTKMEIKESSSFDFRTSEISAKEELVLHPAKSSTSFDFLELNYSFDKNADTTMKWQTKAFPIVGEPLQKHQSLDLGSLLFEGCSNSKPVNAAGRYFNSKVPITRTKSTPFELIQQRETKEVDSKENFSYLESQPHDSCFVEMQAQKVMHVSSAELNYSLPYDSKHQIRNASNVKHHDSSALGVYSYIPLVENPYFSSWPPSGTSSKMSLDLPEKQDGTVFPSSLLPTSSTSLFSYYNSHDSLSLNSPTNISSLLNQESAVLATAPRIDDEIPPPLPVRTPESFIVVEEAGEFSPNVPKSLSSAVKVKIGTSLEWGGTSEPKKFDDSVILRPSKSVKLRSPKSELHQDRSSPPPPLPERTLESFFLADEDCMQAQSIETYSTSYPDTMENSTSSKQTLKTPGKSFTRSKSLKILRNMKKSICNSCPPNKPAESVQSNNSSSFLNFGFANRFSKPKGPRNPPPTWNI
# [2] = target: T1, Tyrosine-protein phosphatase non-receptor type 22; test: LYP (PTPN22) phosphatase inhibitor potency, SAR follow-up, biochemical, pCAP fluorogenic substrate, fluorescence, set 3 (AID 449727); assay type: functional
# [3] = target: Glyceraldehyde-3-phosphate dehydrogenase (Homo sapiens, UniProt P04406)
# Sequence of Glyceraldehyde-3-phosphate dehydrogenase (P04406 whole entry): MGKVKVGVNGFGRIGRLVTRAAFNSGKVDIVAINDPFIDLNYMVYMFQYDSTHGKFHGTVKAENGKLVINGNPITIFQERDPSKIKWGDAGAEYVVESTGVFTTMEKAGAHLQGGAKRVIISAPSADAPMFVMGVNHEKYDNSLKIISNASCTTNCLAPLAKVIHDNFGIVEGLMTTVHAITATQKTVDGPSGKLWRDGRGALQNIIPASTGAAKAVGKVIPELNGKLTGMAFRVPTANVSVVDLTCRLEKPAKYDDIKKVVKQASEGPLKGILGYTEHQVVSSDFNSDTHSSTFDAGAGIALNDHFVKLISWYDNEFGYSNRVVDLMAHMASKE
# [4] = target: T2, Tyrosine-protein phosphatase non-receptor type 12 (Homo sapiens, UniProt Q05209); test: SAR Selectivity Analysis of small molecule inhibitors of PEST using pCAP in a fluorescence assay. [Related pubchem assays (depositor defined):AID1779, AID1784, AID2135]; assay type: functional
# T2 sequence (Q05209 whole entry): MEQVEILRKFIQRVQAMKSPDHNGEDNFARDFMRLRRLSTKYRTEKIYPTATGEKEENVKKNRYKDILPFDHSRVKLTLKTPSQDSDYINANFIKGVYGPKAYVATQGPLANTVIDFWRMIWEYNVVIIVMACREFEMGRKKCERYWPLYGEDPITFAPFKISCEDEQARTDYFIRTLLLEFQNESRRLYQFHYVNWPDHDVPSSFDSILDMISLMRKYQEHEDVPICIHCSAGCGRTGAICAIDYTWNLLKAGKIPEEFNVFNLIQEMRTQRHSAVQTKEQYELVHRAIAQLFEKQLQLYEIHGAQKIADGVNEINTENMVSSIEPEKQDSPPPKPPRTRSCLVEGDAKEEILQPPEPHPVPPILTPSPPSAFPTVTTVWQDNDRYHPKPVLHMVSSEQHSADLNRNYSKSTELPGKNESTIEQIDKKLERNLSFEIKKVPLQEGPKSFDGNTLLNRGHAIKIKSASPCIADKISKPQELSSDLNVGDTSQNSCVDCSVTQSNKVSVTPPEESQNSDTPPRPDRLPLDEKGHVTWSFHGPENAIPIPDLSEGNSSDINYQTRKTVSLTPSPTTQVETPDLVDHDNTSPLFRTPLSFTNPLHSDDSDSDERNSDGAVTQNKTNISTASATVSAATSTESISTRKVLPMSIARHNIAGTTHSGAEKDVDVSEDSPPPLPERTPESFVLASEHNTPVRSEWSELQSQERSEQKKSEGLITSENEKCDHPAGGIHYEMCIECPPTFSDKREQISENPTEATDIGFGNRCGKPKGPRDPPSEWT
# [5] = target: Heat shock protein HSP 90-alpha (Homo sapiens, UniProt P07900); test: Luminescence-based dose response biochemical high throughput screening assay for inhibitors of the Heat Shock Protein 90 (HSP90). [Related pubchem assays: 1831 (Summary AID.), 1846 (Confirmation screen.), 1789 (Primary screen.)]
# [6] = target: Peroxisome proliferator-activated receptor gamma/Nuclear receptor coactivator 1 (Homo sapiens, UniProt P37231); assay type: functional;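 also: agonist potency as compounds enhance coactivator SRC-1 recruitment to PPARgamma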
# Sequence of Peroxisome proliferator-activated receptor gamma/Nuclear receptor coactivator 1 (P37231 whole entry): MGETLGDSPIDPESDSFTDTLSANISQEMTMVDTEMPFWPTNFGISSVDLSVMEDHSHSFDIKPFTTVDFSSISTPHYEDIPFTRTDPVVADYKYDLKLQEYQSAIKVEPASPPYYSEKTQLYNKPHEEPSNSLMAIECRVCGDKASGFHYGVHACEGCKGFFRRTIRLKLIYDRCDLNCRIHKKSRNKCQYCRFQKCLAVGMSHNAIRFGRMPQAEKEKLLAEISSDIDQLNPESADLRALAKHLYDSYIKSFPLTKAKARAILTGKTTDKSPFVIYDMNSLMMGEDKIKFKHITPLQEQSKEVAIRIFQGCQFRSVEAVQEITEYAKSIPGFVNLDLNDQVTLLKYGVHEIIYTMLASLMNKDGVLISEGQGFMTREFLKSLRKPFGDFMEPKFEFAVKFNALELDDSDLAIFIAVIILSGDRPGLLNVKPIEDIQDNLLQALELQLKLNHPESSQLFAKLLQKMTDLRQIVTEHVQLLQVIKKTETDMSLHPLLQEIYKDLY
# Sequence of Peroxisome proliferator-activated receptor gamma/Nuclear receptor coactivator 1 (Q15788 whole entry, further chain): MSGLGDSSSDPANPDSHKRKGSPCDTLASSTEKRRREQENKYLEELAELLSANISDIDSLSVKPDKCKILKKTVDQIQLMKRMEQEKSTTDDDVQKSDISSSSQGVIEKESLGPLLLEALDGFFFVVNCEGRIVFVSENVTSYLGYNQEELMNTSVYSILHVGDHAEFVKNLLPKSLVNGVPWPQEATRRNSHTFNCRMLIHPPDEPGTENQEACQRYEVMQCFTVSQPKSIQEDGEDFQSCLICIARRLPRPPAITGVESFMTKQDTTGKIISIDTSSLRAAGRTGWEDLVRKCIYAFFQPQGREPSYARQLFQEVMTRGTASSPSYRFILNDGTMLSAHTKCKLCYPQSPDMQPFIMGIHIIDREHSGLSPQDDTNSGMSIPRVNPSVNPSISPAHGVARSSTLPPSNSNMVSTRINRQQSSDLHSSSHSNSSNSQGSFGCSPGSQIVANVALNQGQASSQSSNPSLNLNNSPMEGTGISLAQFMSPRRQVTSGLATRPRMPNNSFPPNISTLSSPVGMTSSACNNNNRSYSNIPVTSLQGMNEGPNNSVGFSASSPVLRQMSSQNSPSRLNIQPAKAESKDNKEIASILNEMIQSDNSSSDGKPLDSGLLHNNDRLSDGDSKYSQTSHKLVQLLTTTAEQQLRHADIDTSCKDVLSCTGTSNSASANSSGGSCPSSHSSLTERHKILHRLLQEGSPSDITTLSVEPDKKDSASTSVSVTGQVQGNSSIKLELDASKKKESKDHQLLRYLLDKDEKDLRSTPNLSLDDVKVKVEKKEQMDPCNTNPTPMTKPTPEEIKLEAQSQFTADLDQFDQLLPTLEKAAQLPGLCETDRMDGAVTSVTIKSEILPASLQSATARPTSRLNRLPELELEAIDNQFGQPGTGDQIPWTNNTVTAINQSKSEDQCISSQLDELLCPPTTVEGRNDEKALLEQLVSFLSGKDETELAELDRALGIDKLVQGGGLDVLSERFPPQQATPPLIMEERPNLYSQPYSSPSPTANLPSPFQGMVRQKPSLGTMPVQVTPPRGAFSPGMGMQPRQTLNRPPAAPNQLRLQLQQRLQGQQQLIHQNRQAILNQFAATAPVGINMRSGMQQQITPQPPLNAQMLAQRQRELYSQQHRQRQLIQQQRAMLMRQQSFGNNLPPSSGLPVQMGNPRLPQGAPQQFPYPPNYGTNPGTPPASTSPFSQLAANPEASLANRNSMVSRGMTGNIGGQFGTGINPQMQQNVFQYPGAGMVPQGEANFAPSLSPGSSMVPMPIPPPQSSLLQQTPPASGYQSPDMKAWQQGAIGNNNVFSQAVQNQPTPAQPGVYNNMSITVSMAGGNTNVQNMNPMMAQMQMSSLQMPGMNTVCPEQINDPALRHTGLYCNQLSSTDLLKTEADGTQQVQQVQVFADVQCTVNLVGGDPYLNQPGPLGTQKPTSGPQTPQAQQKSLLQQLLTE
# [7] = target: Peroxisome proliferator-activated receptor gamma/Nuclear receptor coactivator 2 (Homo sapiens, UniProt P37231); assay type: functional;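 also: agonist potency for raising coactivator recruitment to the receptor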
# [8] = target: Peroxisome proliferator-activated receptor gamma/Nuclear receptor coactivator 3 (Homo sapiens, UniProt P37231); assay type: functional;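 also: agonist potency for raising coactivator recruitment to the receptor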
# Sequence of Peroxisome proliferator-activated receptor gamma/Nuclear receptor coactivator 3 (P37231 whole entry): as the sequence (P37231 whole entry) above
# Sequence of Peroxisome proliferator-activated receptor gamma/Nuclear receptor coactivator 3 (Q9Y6Q9 whole entry, further chain): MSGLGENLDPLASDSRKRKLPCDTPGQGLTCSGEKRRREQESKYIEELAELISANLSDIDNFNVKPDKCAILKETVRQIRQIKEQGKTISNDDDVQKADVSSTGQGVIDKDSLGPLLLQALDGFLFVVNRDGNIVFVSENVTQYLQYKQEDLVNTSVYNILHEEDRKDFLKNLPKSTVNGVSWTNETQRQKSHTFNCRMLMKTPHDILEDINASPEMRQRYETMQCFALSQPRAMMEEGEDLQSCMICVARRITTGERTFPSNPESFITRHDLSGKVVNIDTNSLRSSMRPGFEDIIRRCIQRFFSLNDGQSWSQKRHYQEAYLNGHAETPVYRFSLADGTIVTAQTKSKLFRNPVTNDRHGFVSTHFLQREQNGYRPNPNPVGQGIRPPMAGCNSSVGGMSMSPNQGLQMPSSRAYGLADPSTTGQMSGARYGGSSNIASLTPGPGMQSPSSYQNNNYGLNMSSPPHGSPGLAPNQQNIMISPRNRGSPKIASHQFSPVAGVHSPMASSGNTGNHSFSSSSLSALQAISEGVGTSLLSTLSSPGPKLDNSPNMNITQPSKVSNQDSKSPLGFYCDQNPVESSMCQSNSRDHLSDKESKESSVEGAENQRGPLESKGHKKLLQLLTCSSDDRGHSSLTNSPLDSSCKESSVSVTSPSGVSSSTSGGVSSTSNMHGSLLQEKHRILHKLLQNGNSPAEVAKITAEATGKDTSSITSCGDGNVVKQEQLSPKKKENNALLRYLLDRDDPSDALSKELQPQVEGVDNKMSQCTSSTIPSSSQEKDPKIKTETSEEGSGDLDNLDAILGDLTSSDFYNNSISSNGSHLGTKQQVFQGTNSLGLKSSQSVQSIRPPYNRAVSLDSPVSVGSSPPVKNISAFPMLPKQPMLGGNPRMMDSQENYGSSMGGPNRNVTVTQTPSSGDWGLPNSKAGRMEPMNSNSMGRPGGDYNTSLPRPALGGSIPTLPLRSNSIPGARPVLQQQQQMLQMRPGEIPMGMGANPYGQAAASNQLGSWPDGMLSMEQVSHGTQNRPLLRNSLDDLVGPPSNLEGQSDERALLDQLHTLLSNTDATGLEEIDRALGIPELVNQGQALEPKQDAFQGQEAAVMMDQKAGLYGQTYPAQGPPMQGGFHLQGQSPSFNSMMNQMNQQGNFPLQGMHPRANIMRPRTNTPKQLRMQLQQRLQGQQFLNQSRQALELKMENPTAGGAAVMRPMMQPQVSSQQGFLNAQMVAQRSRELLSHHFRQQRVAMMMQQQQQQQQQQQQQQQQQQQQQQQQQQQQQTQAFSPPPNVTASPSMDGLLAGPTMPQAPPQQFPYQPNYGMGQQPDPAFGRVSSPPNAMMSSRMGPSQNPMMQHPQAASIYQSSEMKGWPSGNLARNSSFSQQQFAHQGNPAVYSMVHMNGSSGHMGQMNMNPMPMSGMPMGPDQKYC
# [9] = cytotoxicity in KRAS-transformed pancreatic duct cells, primary screen, cell-based, fluorescence, HTS (AID 431); assay type: functional; conditions: Homo sapiens;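 also: cell line used: HPDE-C7K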
# [10] = cytotoxicity in HPDE-C7 cells, cell-based, fluorescence, HTS (AID 430); assay type: functional; conditions: Homo sapiens
# [11] = target: T3, Heat shock factor protein 1 (Mus musculus, UniProt P38532); test: inhibition of MG132-induced HSE-luciferase signal, confirmation, cell-based, NIH3T3, luminescence, dose retest (AID 2382); assay type: functional;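 also: NIH3T3 fibroblasts with HSF1-driven luciferase reporter stressed by proteasome inhibitor MG132; luminescence from HSF1-driven luciferase expression after 8 hours of MG132 stress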
# T3 sequence (P38532 whole entry): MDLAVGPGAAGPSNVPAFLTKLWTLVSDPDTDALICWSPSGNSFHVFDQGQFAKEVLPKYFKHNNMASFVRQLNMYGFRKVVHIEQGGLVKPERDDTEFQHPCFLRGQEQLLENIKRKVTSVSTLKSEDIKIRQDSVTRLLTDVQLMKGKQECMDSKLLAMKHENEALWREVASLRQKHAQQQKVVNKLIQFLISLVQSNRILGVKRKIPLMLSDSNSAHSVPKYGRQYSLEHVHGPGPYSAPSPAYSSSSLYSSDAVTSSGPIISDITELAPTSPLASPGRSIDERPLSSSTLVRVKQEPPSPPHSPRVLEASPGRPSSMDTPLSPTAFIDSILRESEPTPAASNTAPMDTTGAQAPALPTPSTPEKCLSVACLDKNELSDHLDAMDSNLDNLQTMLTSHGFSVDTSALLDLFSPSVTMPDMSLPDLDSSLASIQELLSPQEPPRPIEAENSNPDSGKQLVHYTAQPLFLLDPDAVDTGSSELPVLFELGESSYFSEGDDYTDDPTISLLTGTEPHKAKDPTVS
# [12] = Luminescence Cell-Based Dose Confirmation to Identify Activators of 5'UTR Stem-Loop Driven Alpha-Synuclein mRNA Translation in H4 Neuroglioblastoma Cells. [Related pubchem assays: 1829 (Project Summary), 1814 (Primary HTS)]; assay type: functional
# H4 = test: Luminescence Cell-Based Dose Response HTS to Identify Activators of 5'UTR Stem-Loop Driven Prion Protein mRNA Translation in H4 Neuroglioblastoma Cells. [Related pubchem assays: 1829 (Project Summary), 1814 (Primary HTS)]; assay type: functional; conditions: Homo sapiens
# [13] = Luminescence Cell-Based Dose Response HTS to Identify Activators of Luciferase Translation or Activity in H4 […] Cells. [Related pubchem assays: 1829 (Project Summary), 1814 (Primary HTS)]; assay type: functional
# [14] = Luminescence Cell-Based Dose Confirmation HTS to Identify Activators of 5'UTR Stem-Loop Driven Alpha-Synuclein mRNA Translation in H4 Neuroglioblastoma Cells. [Related pubchem assays: 1829 (Project Summary), 1814 (Primary HTS)]; assay type: functional
# [15] = Luminescence Cell-Based Dose Response to Identify Activators of Luciferase Translation or Activity in H4-C Neuroglioblastoma Cells. [Related pubchem assays: 1829 (Project Summary), 1814 (Primary HTS)]; assay type: functional
# [16] = Luminescence Cell-Based Dose Response to Identify Activators of 5'UTR Stem-Loop Driven Prion Protein mRNA Translation in H4-C Neuroglioblastoma Cells. [Related pubchem assays: 1829 (Project Summary), 1814 (Primary HTS)]; assay type: functional
# [17] = P. falciparum ATP4 D1247Y mutant growth inhibitors, dose response, NITD609-resistant line, SYBR Green, dry powder (AID 1159571); assay type: functional, cell-based;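 also: parasites synchronized at ring stage by sorbitol before testing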
# [18] = P. falciparum Dd2 growth inhibitors, dose response, SYBR Green, cherry-picked samples (AID 1159567); assay type: functional, cell-based
# [19] = P. falciparum 3D7-ScDHODH growth inhibitors, dose response, SYBR Green, dry powder samples (AID 1159570); assay type: functional, cell-based;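 also: parasite growth measured after 72 hours of compound exposure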
# [20] = P. falciparum Dd2 growth inhibitors, dose response, SYBR Green, dry powder samples, set 9 (AID 1159568); assay type: functional, cell-based
# [21] = P. falciparum Dd2 growth inhibitors, dose response, SYBR Green, dry powder samples (AID 1159566); assay type: functional, cell-based;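 also: potency for growth inhibition with lower SYBR green DNA signal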
# [22] = target: T4, DNA repair protein RAD52 homolog (Homo sapiens, UniProt P43351); assay type: functional, biochemical
# T4 sequence (P43351 whole entry): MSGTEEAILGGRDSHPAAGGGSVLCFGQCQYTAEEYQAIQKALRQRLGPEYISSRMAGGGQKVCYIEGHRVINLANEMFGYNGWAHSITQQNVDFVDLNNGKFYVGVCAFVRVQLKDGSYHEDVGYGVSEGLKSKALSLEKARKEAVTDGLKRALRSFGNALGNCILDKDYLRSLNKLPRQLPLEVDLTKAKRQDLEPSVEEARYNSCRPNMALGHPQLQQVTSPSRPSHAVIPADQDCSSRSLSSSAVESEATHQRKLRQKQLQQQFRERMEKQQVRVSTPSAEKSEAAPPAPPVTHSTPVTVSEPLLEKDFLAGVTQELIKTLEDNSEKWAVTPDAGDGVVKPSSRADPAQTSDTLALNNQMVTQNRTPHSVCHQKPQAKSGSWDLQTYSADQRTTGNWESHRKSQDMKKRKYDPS
# [23] = Dose-response inhibition of insulin secretion in a rat insulinoma line at 5 mM glucose (AID 1117331); assay type: functional, cell-based; conditions: INS-1E
smiles,measurement,setting,value
O=C(O)CN1C(=O)/C(=C\c2ccc(C(=O)O)cc2)SC1=S,IC50,[1],> 100 µM (inactive)
same,IC50,[2],88.9 µM (active)
same,IC50,[3],> 100 µM (not active)
same,IC50,[4],24.5 µM (active)
O=C(O)CN1C(=O)/C(=C\c2cccc([N+](=O)[O-])c2)SC1=S,IC50,[1],> 100 µM (inactive)
same,IC50,[2],> 100 µM (inactive)
same,IC50,[3],> 100 µM (not active)
same,IC50,[4],> 100 µM (inactive)
CC(=O)Oc1ccccc1/C=C/c1nc2ccccc2c(=O)o1,IC50,[5],5.31 µM (active)
COc1ccccc1N(CC(=O)NCC1CCCO1)C(=O)CCC(=O)Nc1nccs1 (stereo not given),EC50,[6],> 79.4 µM (not active)
same,EC50,[7],> 79.4 µM (not active)
same,EC50,[8],> 79.4 µM (not active)
Cc1cc(C)c2c(n1)nn1c(N3CCN(c4ccccc4)CC3)cc(C)nc21,EC50,[9],> 20 µM (not active)
same,EC50,[10],> 20 µM (not active)
COc1ccc(C(=O)CSc2nnc(-c3ccc(S(=O)(=O)N4CCOCC4)cc3)o2)cc1,EC50,[6],40.5 µM (not active)
same,EC50,[7],26.1 µM (not active)
same,EC50,[8],53.5 µM (not active)
CCOC(=O)c1c(NC(=O)Cc2cccs2)sc(C(=O)NC2CCCC2)c1C,EC50,[6],> 79.4 µM (not active)
same,EC50,[7],> 79.4 µM (not active)
same,EC50,[8],> 79.4 µM (not active)
CCOC(=O)N1CCN(S(=O)(=O)c2cc(Br)cc3c2N(C(C)=O)C(C)C3)CC1 (stereo not given),EC50,[9],> 20 µM (not active)
same,EC50,[10],> 20 µM (not active)
Cc1ccc(-n2ncc3c(NCc4ccc5c(c4)OCO5)ncnc32)c(C)c1,EC50,[9],> 20 µM (not active)
same,EC50,[11],> 195 µM (not active)
same,EC50,[10],> 20 µM (not active)
COc1ccc(/N=C/c2sc(O)c3ccccc23)cc1,EC50,[12],0.228 µM (active)
same,EC50,H4,< 0.1 µM (active)
same,EC50,[13],< 0.1 µM (active)
same,EC50,[14],< 0.1 µM (active)
same,EC50,[15],0.433 µM (active)
same,EC50,[16],0.315 µM (active)
COc1ccc(/C=N/Nc2nnc(-c3ncc[nH]3)c3ccccc23)cc1,EC50,[12],0.962 µM (active)
same,EC50,H4,65.2 µM (active)
same,EC50,[13],1.93 µM (active)
same,EC50,[14],< 0.1 µM (active)
same,EC50,[15],1.34 µM (active)
same,EC50,[16],> 12 µM (not active)
C[C@@H]1CN([C@@H](C)CO)C(=O)c2cccc(NC(=O)c3cnccn3)c2O[C@@H]1CN(C)Cc1ccc(-c2ccccc2)cc1,AC50,[17],0.357 µM (active)
same,AC50,[18],1.14 µM (active)
same,AC50,[19],0.0947 µM (active)
same,AC50,[20],0.378 µM (active)
same,AC50,[21],0.381 µM (active)
C[C@H]1CN([C@@H](C)CO)C(=O)c2cccc(NC(=O)NC3CCCCC3)c2O[C@H]1CN(C)Cc1ccc(C(F)(F)F)cc1,AC50,[20],31.7 µM (active)
CCCCOc1cc(C(=O)OCCN(CC)CC)ccc1N [BENOXINATE HYDROCHLORIDE],AC50,[22],33.9 µM (active)
same,IC50,[23],15.5 µM (inactive)
